Among the data in US9073911B2, “Pyrazole derivatives” (HOFFMANN-LA ROCHE INC., priority 2011, dated 2015) are Ki values, retold here.

Counter-ions that a name gives are not always drawn.

For test [1], the target named is mouse TAAR1 (Mus musculus (Mouse), UniProt Q923Y8). Description: Radioligand binding assay on mouse TAAR1. The following applies: membranes of HEK-293 cells stably expressing mouse TAAR1; first value of cell mouse/rat. The protocol:
(§1) Construction of TAAR Expression Plasmids and Stably Transfected Cell Lines
(§2) For the construction of expression plasmids the coding sequences of human, rat and mouse TAAR 1 were amplified from genomic DNA essentially as described by Lindemann et al.. The Expand High Fidelity PCR System (Roche Diagnostics) was used with 1.5 mM Mg^2+ and purified PCR products were cloned into pCR2.1-TOPO cloning vector (Invitrogen) following the instructions of the manufacturer. PCR products were subcloned into the pIRESneo2 vector (BD Clontech, Palo Alto, Calif.), and expression vectors were sequence verified before introduction in cell lines.
(§3) HEK293 cells (ATCC # CRL-1573) were cultured essentially as described by Lindemann et al. (2005). For the generation of stably transfected cell lines HEK293 cells were transfected with the pIRESneo2 expression plasmids containing the TAAR coding sequences (described above) with Lipofectamine 2000 (Invitrogen) according to the instructions of the manufacturer, and 24 hrs post transfection the culture medium was supplemented with 1 mg/ml G418 (Sigma, Buchs, Switzerland). After a culture period of about 10 d clones were isolated, expanded and tested for responsiveness to trace amines (all compounds purchased from Sigma) with the cAMP Biotrak Enzyme immunoassay (EIA) System (Amersham) following the non-acetylation EIA procedure provided by the manufacturer.
Radioligand Binding Assay on Mouse TAAR1
(§4) Membrane Preparation and Radioligand Binding.
HEK-293 cells stably expressing mouse TAAR1 were maintained at 37° C. and 5% CO2 in DMEM high glucose medium, containing fetal calf serum (10%, heat inactivated for 30 min at 56° C.), penicillin/streptomycin (1%), and 375 μg/ml geneticin (Gibco). Cells were released from culture flasks using trypsin/EDTA, harvested, washed twice with ice-cold PBS (without Ca^2+ and Mg^2+), pelleted at 1,000 rpm for 5 min at 4° C., frozen and stored at −80° C. Frozen pellets were suspended in 20 ml HEPES-NaOH (20 mM, pH 7.4) containing 10 mM EDTA and homogenized with a Polytron (PT 6000, Kinematica) at 14,000 rpm for 20 s. The homogenate was centrifuged at 48,000×g for 30 min at 4° C. Subsequently, the supernatant was removed and discarded, and the pellet resuspended in 20 ml HEPES-NaOH (20 mM, pH 7.4) containing 0.1 mM EDTA using the Polytron (20 s at 14,000 rpm). This procedure was repeated and the final pellet resuspended in HEPES-NaOH containing 0.1 mM EDTA and homogenized using the Polytron. Typically, aliquots of 2 ml membrane portions were stored at −80° C. With each new membrane batch the dissociation constant (Kd) was determined via a saturation curve. The TAAR1 radioligand ^3[H]—(S)-4-[(ethyl-phenyl-amino)-methyl]-4,5-dihydro-oxazol-2-ylamine (described in WO 2008/098857) was used at a concentration equal to the calculated Kd value, that was usually around 0.7 nM, resulting in the binding of approximately 0.5% of the radioligand and a specific binding representing approximately 70% of the total binding. Nonspecific binding was defined as the amount of ^3[H]—(S)-4-[(ethyl-phenyl-amino)-methyl]-4,5-dihydro-oxazol-2-ylamine bound in the presence of 10 μM unlabeled ligand. All compounds were tested at a broad range of concentrations ([…]) in duplicates. […] The 96 deep well plates were incubated for 1 hr at 4° C. Incubations were terminated by rapid filtration through Unifilter-96 plates (Packard Instrument Company) and glass filters GF/C (Perkin Elmer) presoaked for 1 hr in polyethylenimine (0.3%) and washed 3 times with 1 ml of cold binding buffer. After addition of 45 μl of Microscint 40 (PerkinElmer) the Unifilter-96 plate was sealed and after 1 hr the radioactivity counted using a TopCount Microplate Scintillation Counter (Packard Instrument Company).

The target of test [2] is rat TAAR1 (Rattus norvegicus (Rat), UniProt Q923Y9). Description: Radioligand binding assay on rat TAAR1. Particulars: membranes of HEK-293 cells stably expressing rat TAAR1; second value of cell mouse/rat. The protocol: as §1, §2, §3
Radioligand Binding Assay on rat TAAR1
as §4
HEK-293 cells stably expressing rat TAAR1 were maintained at 37° C. and 5% CO2 in DMEM high glucose medium, containing fetal calf serum (10%, heat inactivated for 30 min at 56° C.), penicillin/streptomycin (1%), and 375 μg/ml geneticin (Gibco). Cells were released from culture flasks using trypsin/EDTA, harvested, washed twice with ice-cold PBS (without Ca^2+ and Mg^2+), pelleted at 1,000 rpm for 5 min at 4° C., frozen and stored at −80° C. Frozen pellets were suspended in 20 ml HEPES-NaOH (20 mM, pH 7.4) containing 10 mM EDTA and homogenized with a Polytron (PT 6000, Kinematica) at 14,000 rpm for 20 s. The homogenate was centrifuged at 48,000×g for 30 min at 4° C. Subsequently, the supernatant was removed and discarded, and the pellet resuspended in 20 ml HEPES-NaOH (20 mM, pH 7.4) containing 0.1 mM EDTA using the Polytron (20 s at 14,000 rpm). This procedure was repeated and the final pellet resuspended in HEPES-NaOH containing 0.1 mM EDTA and homogenized using the Polytron. Typically, aliquots of 2 ml membrane portions were stored at −80° C. With each new membrane batch the dissociation constant (Kd) was determined via a saturation curve.
Nonspecific binding was defined as the amount of ^3-[H]-(S)-4-[(ethyl-phenyl-amino)-methyl]-4,5-dihydro-oxazol-2-ylamine bound in the presence of 10 μM unlabeled ligand. All compounds were tested at a broad range of concentrations (10 pM to 10 μM) in duplicates. […] The 96 deep well plates were incubated for 1 hr at 4° C. Incubations were terminated by rapid filtration through Unifilter-96 plates (Packard Instrument Company) and glass filters GF/C (Perkin Elmer) presoaked for 1 hr in polyethylenimine (0.3%) and washed 3 times with 1 ml of cold binding buffer. After addition of 45 μl of Microscint 40 (PerkinElmer) the Unifilter-96 plate was sealed and after 1 hr the ratioactivity counted using a TopCount Microplate Scintillation Counter (Packard Instrument Company).

Chain of rat TAAR1 (Q923Y9 whole entry): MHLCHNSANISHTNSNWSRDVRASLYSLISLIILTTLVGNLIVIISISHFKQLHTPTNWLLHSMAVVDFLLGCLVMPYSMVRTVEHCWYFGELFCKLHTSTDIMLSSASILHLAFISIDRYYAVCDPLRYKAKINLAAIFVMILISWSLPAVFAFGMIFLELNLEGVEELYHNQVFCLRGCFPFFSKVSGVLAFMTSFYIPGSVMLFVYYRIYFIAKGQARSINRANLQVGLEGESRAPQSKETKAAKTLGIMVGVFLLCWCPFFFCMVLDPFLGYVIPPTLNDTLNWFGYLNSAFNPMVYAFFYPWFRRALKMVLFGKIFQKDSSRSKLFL
Chain of mouse TAAR1 (Q923Y8 whole entry): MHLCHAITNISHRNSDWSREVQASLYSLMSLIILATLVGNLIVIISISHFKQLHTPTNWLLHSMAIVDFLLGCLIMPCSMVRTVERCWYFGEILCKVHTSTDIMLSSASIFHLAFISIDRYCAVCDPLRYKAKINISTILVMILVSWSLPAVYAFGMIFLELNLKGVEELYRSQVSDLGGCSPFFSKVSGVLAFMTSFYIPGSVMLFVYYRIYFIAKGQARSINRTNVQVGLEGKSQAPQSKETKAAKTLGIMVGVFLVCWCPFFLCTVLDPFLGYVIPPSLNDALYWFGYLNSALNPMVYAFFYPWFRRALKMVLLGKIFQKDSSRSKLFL

One may read the Ki as a dissociation constant, usually derived from enzyme kinetics or from competition with a known ligand. Regarding `N#Cc1cccc(-c2cc(C(=O)Nc3ccc(C4CCNC4)cc3)[nH]n2)c1` (racemic) [Example 38, (rac) 3-(3-Cyanophenyl)-N-(4-(pyrrolidin-3-yl)phenyl)-1H-pyrazole-5-carboxamide hydrochloride], the Ki in test [1] stood at 0.0021 µM; in test [2], 0.0042 µM.
With `Cn1nc(-c2ccc(F)cc2)cc1C(=O)Nc1ccc(C2CNCCO2)cc1` (stereo in doubt) [Example 22, (S)-3-(4-fluorophenyl)-1-methyl-N-(4-(morpholin-2-yl)phenyl)-1H-pyrazole-5-carboxamide hydrochloride], the Ki amounted to 0.0023 µM in test [1] and 0.0022 µM in test [2].
For `O=C(Nc1ccc([C@H]2CNCCO2)cc1)c1cc(-c2ccccc2)[nH]n1` [Example 1, (S)—N-(4-(morpholin-2-yl)phenyl)-5-phenyl-1H-pyrazole-3-carboxamide hydrochloride] the same measures were 0.0007 µM and 0.0043 µM.
For `O=C(Nc1ccc([C@H]2CNCCO2)cc1)c1cc(-c2cccc(Cl)c2)[nH]n1` [Example 2, (S)-3-(3-chlorophenyl)-N-(4-(morpholin-2-yl)phenyl)-1H-pyrazole-5-carboxamide hydrochloride], the Ki is 0.0003 µM in test [1] and 0.0004 µM in test [2].
As to `O=C(Nc1ccc([C@H]2CNCCO2)cc1)c1cc(-c2ccc(F)cc2)[nH]n1` [Example 3, (S)-3-(4-fluorophenyl)-N-(4-(morpholin-2-yl)phenyl)-1H-pyrazole-5-carboxamide hydrochloride], the Ki in test [1] was 0.0008 µM; in test [2] it was 0.0027 µM.
For the molecule `COc1cccc(-c2cc(C(=O)Nc3ccc([C@H]4CNCCO4)cc3)n[nH]2)c1` [Example 4, (S)-3-(3-methoxyphenyl)-N-(4-(morpholin-2-yl)phenyl)-1H-pyrazole-5-carboxamide hydrochloride], the Ki came to 0.001 µM in test [1] and 0.0022 µM in test [2].
For `Cn1nc(-c2ccccc2)cc1C(=O)Nc1ccc([C@H]2CNCCO2)cc1` [Example 5, (S)-1-methyl-N-(4-(morpholin-2-yl)phenyl)-3-phenyl-1H-pyrazole-5-carboxamide hydrochloride] the same measures were 0.0072 µM and 0.0045 µM.
`Cc1c(-c2ccccc2)n[nH]c1C(=O)Nc1ccc([C@H]2CNCCO2)cc1` [Example 6, (S)-4-methyl-N-(4-(morpholin-2-yl)phenyl)-3-phenyl-1H-pyrazole-5-carboxamide hydrochloride]: the Ki was determined as 0.0016 µM in test [1] and 0.008 µM in test [2].
Turning to `COc1ccc(-c2cc(C(=O)Nc3ccc([C@H]4CNCCO4)cc3)[nH]n2)cc1` [Example 7, (S)-3-(4-methoxyphenyl)-N-(4-(morpholin-2-yl)phenyl)-1H-pyrazole-5-carboxamide hydrochloride], the Ki in test [1] is 0.0012 µM; in test [2], 0.0049 µM.
Consider `O=C(Nc1ccc([C@H]2CNCCO2)cc1)c1cc(-c2ccccc2F)n[nH]1` [Example 8, (S)-3-(2-fluorophenyl)-N-(4-(morpholin-2-yl)phenyl)-1H-pyrazole-5-carboxamide hydrochloride], for which the Ki in test [1] was found to be 0.0009 µM; in test [2], 0.0073 µM.
For `COc1ccccc1-c1cc(C(=O)Nc2ccc([C@H]3CNCCO3)cc2)[nH]n1` [Example 9, (S)-3-(2-methoxyphenyl)-N-(4-(morpholin-2-yl)phenyl)-1H-pyrazole-5-carboxamide hydrochloride], the Ki in test [1] turned out to be 0.0014 µM; in test [2] it was 0.014 µM.
As to `O=C(Nc1ccc([C@H]2CNCCO2)cc1)c1cc(-c2ccccc2Cl)n[nH]1` [Example 10, (S)-3-(2-chlorophenyl)-N-(4-(morpholin-2-yl)phenyl)-1H-pyrazole-5-carboxamide hydrochloride], the Ki is 0.0005 µM in test [1] and 0.0026 µM in test [2].
For the molecule `COc1ccc(-c2cc(C(=O)Nc3ccc([C@H]4CNCCO4)cc3)[nH]n2)cc1OC` [Example 11, (S)-3-(3,4-dimethoxyphenyl)-N-(4-(morpholin-2-yl)phenyl)-1H-pyrazole-5-carboxamide hydrochloride], the Ki came out at 0.0026 µM in test [1] and 0.0127 µM in test [2].
On to `O=C(Nc1ccc([C@@H]2CNCCO2)cc1)c1cc(-c2ccc(Cl)cc2)n[nH]1` [Example 12, (R)-3-(4-chlorophenyl)-N-(4-(morpholin-2-yl)phenyl)-1H-pyrazole-5-carboxamide hydrochloride], for which the inhibition constant (Ki) in test [1] amounted to 0.0005 µM; in test [2] it was 0.0004 µM.
On to `O=C(Nc1ccc([C@@H]2CNCCO2)cc1)c1cc(-c2ccccc2Cl)n[nH]1` [Example 13, (R)-3-(2-chlorophenyl)-N-(4-(morpholin-2-yl)phenyl)-1H-pyrazole-5-carboxamide hydrochloride], for which the Ki was 0.0008 µM in test [1] and 0.001 µM in test [2].
With `O=C(Nc1ccc([C@H]2CNCCO2)cc1)c1cc(-c2ccc(Cl)cc2)n[nH]1` [Example 14, (S)-3-(4-chlorophenyl)-N-(4-(morpholin-2-yl)phenyl)-1H-pyrazole-5-carboxamide hydrochloride], the figures for the Ki in test [1] and in test [2] were 0.0017 µM and 0.0028 µM, respectively.
Regarding `O=C(Nc1ccc([C@@H]2CNCCO2)cc1)c1cc(-c2cccc(Cl)c2)n[nH]1` [Example 15, (R)-3-(3-chlorophenyl)-N-(4-(morpholin-2-yl)phenyl)-1H-pyrazole-5-carboxamide hydrochloride], the Ki in test [1] came to 0.0006 µM; in test [2] it was 0.0004 µM.
As to `COc1cccc(-c2cc(C(=O)Nc3ccc([C@@H]4CNCCO4)cc3)[nH]n2)c1` [Example 16, (R)-3-(3-methoxyphenyl)-N-(4-(morpholin-2-yl)phenyl)-1H-pyrazole-5-carboxamide hydrochloride], the figures for the Ki in test [1] and in test [2] were 0.0013 µM and 0.0014 µM, respectively.
The matching figures for `Cn1nc(-c2cccc(Cl)c2)cc1C(=O)Nc1ccc([C@H]2CNCCO2)cc1` [Example 17, (S)-3-(3-chlorophenyl)-1-methyl-N-(4-(morpholin-2-yl)phenyl)-1H-pyrazole-5-carboxamide hydrochloride]: 0.0016 µM and 0.0024 µM.
